For assay [1], the target named is Sodium-dependent noradrenaline transporter (Homo sapiens, UniProt P23975).
Description: Inhibitory activity against norepinephrine (NE) uptake in rat whole brain synaptosome preparation
Assay [2] is filed under the species Mus musculus. Description: animal or person.
Description: Effective dose against administration in mice
Assay [3] deals with Muscarinic acetylcholine receptor. The assay is classed as cell membranes, Membrane.
Description: Inhibition of [3H]quinuclidinyl benzilate (QNB) binding from rat forebrain membranes in the absence of Zn
Assay [4] addresses T1, Acetylcholinesterase (Rattus norvegicus, UniProt P37136).
T1 sequence (P37136 whole entry): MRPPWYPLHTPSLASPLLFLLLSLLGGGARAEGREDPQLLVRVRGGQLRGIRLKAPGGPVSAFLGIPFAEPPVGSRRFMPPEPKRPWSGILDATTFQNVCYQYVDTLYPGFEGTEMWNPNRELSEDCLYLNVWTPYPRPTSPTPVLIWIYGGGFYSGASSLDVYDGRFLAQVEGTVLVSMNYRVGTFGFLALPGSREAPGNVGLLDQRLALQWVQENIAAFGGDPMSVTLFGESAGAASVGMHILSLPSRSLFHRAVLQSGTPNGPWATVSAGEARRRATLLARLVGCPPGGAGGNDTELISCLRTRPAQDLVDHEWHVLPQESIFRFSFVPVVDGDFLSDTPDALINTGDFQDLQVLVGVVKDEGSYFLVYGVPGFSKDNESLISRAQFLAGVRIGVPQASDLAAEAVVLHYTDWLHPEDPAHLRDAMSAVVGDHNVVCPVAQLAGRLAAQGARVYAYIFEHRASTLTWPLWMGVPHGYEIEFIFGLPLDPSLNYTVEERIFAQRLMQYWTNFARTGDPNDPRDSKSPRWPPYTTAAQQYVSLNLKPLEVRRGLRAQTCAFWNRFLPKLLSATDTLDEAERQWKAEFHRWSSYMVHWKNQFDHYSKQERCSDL
Description: Inhibitory activity against acetylcholinesterase in rat striatal preparation

Assay [5] deals with Muscarinic acetylcholine receptor. Format: cell membranes, Membrane. This is another data set of the same source.
Description: Inhibition of [3H]quinuclidinyl benzilate (QNB) binding from rat forebrain membranes in the presence of Zn
The species entered for assay [6] is Mus musculus. Description: Antagonistic activity against Scopolamine induced behavioral deficits in mice; 0/3. The assay is classed as functional.
The species named for assay [7] is Mus musculus. To be noted: dose 2.5 mg/kg; route subcutaneous.
Description: Antagonistic activity against Scopolamine induced behavioral deficits in mice at dose 2.5 mg/kg sc
Assay [8] relates to Mus musculus. Description: Antagonistic activity against Scopolamine induced behavioral deficits in mice at dose […] sc. Format: functional. To be noted: route subcutaneous.
Assay [9] concerns Mus musculus. Description: Antagonistic activity against Scopolamine induced behavioral deficits in mice at dose 0.16 mg/kg sc. The assay is classed as functional. To be noted: route subcutaneous.
Assay [10] relates to Mus musculus. Description: Antagonistic activity against Scopolamine induced behavioral deficits in mice at dose 1.25 mg/kg sc. The assay is classed as functional. To be noted: route subcutaneous.
Assay [11] is filed under the species Mus musculus. Description: Antagonistic activity against Scopolamine induced behavioral deficits in mice; 5/6. Format: functional.
Assay [12] addresses T2, Adrenergic receptor alpha-2 (Rattus norvegicus, UniProt P22086+P19328+P22909).
T2 sequence (P22086 whole entry): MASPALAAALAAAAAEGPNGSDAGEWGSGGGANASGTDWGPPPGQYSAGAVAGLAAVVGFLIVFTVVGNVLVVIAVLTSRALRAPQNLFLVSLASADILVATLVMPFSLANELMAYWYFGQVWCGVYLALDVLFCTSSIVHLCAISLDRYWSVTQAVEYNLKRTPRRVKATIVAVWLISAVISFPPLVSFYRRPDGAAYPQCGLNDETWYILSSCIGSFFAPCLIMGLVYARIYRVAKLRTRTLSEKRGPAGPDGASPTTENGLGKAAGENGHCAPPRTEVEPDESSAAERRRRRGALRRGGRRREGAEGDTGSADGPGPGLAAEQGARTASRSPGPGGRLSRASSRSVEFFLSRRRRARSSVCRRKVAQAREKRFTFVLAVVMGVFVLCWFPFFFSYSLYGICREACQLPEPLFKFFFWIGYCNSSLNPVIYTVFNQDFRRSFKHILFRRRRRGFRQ
T2 sequence (P19328 whole entry): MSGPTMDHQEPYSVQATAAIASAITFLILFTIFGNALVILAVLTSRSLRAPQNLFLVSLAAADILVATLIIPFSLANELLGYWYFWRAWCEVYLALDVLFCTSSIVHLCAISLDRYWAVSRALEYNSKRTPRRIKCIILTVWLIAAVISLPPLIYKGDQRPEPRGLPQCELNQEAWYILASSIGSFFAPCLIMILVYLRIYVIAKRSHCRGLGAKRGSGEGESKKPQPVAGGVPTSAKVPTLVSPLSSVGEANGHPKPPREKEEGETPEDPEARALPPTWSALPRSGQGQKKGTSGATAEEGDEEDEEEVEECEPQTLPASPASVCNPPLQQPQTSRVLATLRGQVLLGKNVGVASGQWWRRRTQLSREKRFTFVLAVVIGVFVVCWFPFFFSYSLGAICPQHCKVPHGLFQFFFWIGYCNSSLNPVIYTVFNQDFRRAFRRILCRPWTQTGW
T2 sequence (P22909 whole entry): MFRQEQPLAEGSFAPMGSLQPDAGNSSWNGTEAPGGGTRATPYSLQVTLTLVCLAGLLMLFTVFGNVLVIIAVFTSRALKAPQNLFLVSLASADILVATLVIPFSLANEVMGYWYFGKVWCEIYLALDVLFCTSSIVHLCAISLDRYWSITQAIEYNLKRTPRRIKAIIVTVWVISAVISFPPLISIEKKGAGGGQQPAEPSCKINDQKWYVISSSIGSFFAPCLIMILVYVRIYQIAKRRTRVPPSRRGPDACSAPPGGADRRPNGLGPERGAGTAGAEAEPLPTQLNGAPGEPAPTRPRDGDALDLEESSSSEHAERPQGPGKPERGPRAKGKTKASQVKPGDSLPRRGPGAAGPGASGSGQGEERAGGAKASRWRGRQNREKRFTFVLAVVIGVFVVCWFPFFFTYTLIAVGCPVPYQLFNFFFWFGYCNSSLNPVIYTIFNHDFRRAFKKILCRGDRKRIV
Description: Inhibitory activity against [3H]clonidine binding to Alpha-2 adrenergic receptor in rat cortex.

The species entered for assay [13] is Mus musculus. To be noted: dose 5 mg/kg; route subcutaneous.
Assay [14] is filed under the species Mus musculus. Description: Antagonistic activity against Scopolamine induced behavioral deficits in mice; 1/6. Format: functional.
For assay [15], the target named is T3, Adrenergic receptor alpha-1 (Rattus norvegicus, UniProt P15823+P23944+P43140).
T3 sequence (P15823 whole entry): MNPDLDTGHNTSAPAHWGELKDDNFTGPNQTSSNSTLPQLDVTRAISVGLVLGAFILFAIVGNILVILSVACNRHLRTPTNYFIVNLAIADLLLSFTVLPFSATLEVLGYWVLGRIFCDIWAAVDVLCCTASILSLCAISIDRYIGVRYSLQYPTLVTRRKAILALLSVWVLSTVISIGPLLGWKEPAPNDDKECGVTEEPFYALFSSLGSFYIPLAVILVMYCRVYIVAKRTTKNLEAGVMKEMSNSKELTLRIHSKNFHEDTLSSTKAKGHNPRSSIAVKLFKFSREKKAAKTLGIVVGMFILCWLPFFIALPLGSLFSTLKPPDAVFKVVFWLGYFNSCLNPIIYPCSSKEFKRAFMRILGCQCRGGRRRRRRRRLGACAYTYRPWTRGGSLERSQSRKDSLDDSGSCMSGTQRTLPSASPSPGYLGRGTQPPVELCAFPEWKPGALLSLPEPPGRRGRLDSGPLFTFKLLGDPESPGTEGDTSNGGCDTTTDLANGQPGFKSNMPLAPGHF
T3 sequence (P23944 whole entry): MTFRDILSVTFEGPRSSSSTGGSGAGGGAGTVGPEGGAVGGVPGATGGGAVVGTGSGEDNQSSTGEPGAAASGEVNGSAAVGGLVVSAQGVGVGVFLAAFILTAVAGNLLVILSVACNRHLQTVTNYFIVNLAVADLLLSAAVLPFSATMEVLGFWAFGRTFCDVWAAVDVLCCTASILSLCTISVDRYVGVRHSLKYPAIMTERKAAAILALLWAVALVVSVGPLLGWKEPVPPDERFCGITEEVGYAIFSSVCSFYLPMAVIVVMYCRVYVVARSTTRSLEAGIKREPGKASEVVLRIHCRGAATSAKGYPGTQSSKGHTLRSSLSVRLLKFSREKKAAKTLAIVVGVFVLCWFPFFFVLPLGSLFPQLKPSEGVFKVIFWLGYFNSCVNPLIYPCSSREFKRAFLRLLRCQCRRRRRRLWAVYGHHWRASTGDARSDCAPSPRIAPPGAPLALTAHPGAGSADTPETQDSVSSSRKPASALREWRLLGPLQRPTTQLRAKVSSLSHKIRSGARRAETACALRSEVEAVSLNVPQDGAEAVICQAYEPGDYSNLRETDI
T3 sequence (P43140 whole entry): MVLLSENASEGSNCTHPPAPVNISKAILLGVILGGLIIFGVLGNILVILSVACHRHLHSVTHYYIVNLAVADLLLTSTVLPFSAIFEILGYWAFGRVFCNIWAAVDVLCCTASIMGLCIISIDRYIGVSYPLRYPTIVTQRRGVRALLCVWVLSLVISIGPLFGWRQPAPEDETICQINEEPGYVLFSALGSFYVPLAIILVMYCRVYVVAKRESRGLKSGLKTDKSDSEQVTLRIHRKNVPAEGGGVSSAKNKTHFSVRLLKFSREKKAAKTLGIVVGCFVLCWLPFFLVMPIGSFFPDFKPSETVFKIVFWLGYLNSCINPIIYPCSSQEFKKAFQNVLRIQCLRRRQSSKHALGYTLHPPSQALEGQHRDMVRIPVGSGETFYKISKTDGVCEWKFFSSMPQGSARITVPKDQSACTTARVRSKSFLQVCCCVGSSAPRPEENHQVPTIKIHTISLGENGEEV
Description: Inhibitory activity against [3H]WB-4101 binding to Alpha-1 adrenergic receptor in rat whole brain membrane. The assay is classed as cell membranes.

The species named for assay [16] is Mus musculus. To be noted: dose 0.63 mg/kg; route subcutaneous.
The species entered for assay [17] is Mus musculus. Description: Antagonistic activity against Scopolamine induced behavioral deficits in mice; 4/6. The assay is classed as functional.
Assay [18] relates to Mus musculus. Description: Antagonistic activity against Scopolamine induced behavioral deficits in mice at dose 5.0 mg/kg sc. Format: functional. To be noted: route subcutaneous.
Assay [19] concerns Mus musculus. Description: Antagonistic activity against Scopolamine induced behavioral deficits in mice at dose 0.63 mg/kg sc. Format: functional. To be noted: route subcutaneous.

The values below come from ChEMBL document CHEMBL1129670, “Synthesis and structure-activity relationships of N-propyl-N-(4-pyridinyl)-1H-indol-1-amine (besipirdine) and related analogs as potential therapeutic agents for Alzheimer's disease” (J Med Chem, 1996).

Molecules are shown by their SMILES.

Usually IC50 stands for the point on the concentration scale where inhibition reaches its midpoint. For orientation: ED50 means the midpoint of the dose-response relation. The low end stands for an effect at a small dose, the high end for a need for a large dose.

Sequence of Sodium-dependent noradrenaline transporter (P23975 whole entry): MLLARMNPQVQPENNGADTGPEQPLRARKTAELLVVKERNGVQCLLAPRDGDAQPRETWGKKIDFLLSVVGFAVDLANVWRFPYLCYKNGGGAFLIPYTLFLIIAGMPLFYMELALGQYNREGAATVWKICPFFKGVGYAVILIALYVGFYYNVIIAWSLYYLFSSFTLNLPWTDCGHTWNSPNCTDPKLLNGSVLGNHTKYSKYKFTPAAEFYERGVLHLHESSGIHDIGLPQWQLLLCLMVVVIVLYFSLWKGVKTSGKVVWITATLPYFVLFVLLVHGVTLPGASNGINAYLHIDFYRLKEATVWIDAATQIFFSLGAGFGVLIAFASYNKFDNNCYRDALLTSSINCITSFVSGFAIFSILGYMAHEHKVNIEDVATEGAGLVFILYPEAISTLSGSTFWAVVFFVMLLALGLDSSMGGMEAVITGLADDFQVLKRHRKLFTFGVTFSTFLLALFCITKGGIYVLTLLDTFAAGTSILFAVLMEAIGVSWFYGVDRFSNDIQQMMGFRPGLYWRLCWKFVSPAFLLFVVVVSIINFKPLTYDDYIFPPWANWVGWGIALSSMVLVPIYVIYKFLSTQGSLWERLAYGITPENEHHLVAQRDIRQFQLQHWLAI

For the compound `Cc1cc2ccccc2n1Nc1ccncc1`, the IC50 in assay [1] is 3.6 µM; in assay [3] it was 60 µM; in assay [4] it was above 100 µM; in [5], 29 µM. This compound registered an ED50 in assay [2] below 10 mg/kg. Further, the Antagonism in [6] worked out at 0.

For the compound `CC(C)N(c1ccncc1)n1ccc2ccccc21`, the IC50 in assay [1] is 2.3 µM; in [3] it was 6 µM; in assay [4], above 100 µM; in assay [5], 0.63 µM; in [12], above 10 µM. In addition, the Response in [7] is given as 20%; in [8], 60%; in assay [9], 33%; in assay [10] it was 36%; in [13], 20%. Moreover, it took a dose of 2.9 mg/kg to reach the 50% effect level in assay [2] (ED50). Further, in assay [11], the Antagonism was found to be 5.

For `CCN(c1ccncc1)n1ccc2ccccc21`, the IC50 was 0.25 µM in assay [1]; 10 µM in assay [3]; above 100 µM in [4]; 2.4 µM in assay [5]; 3.3 µM in assay [15]; 0.11 µM in [12]. Besides, in [2], the 50% effect level (ED50) was put at a dose of 3.3 mg/kg. The Antagonism in assay [14] is recorded as 1. Also, the Response in assay [16] worked out at 33%.

For the compound `CCCN(c1ccncc1)n1ccc2cc(OC)ccc21`, the IC50 in [1] was 0.57 µM; in [3], 14 µM; in [4], above 100 µM; in assay [5] it was 4.8 µM. In assay [2], this compound yielded an ED50 above 20 mg/kg. Further, the Response is recorded as 20% in assay [8], 20% in assay [9], 36% in assay [18] and 26% in [19]. The Antagonism in assay [17] was determined as 4.

Turning to `CN(c1ccncc1)n1ccc2cc([N+](=O)[O-])ccc21`, the IC50 in assay [1] is above 30 µM; in assay [3], 29 µM; in assay [4], above 100 µM; in assay [5], 7.6 µM. In assay [2], the ED50 was above 20 mg/kg. The Response in assay [9], in assay [10], in assay [18] and in assay [16] was 20% throughout. Moreover, in [17], the Antagonism is on record as 4.

As for `CCCN(c1ccncn1)n1ccc2ccccc21`, the IC50 in assay [1] was 1.4 µM; in assay [3], 391 µM; in [4] it was above 100 µM; in assay [5] it was 11 µM. This compound also gave an ED50 in assay [2] above 20 mg/kg. The compound also yielded an Antagonism in [14] of 1. The Response in assay [18] came out at 23%.

In the case of `CCCN(c1ccncc1)n1cc(C#N)c2ccccc21`, the IC50 was found to be 0.75 µM in assay [1], 8.6 µM in assay [3] and 3.5 µM in assay [5]. The ED50 in [2] is 9.2 mg/kg. Further, the Response is on record as 53% in assay [8]; 40% in [9]; 29% in assay [10]; 27% in assay [18]; 36% in assay [19]. In addition, the Antagonism in assay [11] came out at 5.

With `Clc1ccc2c(ccn2Nc2ccncc2)c1`, the IC50 in assay [1] was above 20 µM; in [3], 42 µM; in assay [4] it was above 100 µM; in assay [5], 5.9 µM. For the same compound, the ED50 in assay [2] is above 20 mg/kg. This compound also returned an Antagonism in assay [6] of 0.

Regarding `c1ccc2c(c1)OCC(C1=NCCN1)O2` (configuration not stated) [IDAZOXAN], the IC50 in [1] was above 20 µM. In addition, the Response in [7] is 53%; in assay [8] it was 60%; in assay [10] it was 47%; in assay [16], 43%; in assay [13] it was 33%. The compound also had an Antagonism in assay [11] of 5.
